# According to EP1463487B1, “LIPOSOMAL DELIVERY OF VITAMIN E BASED COMPOUNDS” (RESEARCH DEVELOPMENT FOUNDATION, priority 2001, dated 2003):
# Where two headings read alike, the source gives them in different places. Marks after values point to notes of the source that are not given here.
# Assays:
# [1] = system: 66 cl.4-GFP cells; assay: Visible lung metastases of 66 cl.4-GFP tumors in Balb/c mice; assay type: in vivo; parameters: Inhibition (%) of visible lung metastases: concentration or dose not given beside the values; conditions: liposomal formulations by aerosol; for Visible lung metastases/animal: 36 µg per animal per day, 19 or 21 days; for Inhibition (%) of visible lung metastases: versus control
# Excerpt: (§1) Metastastic lesions in the five lung lobes were counted visually at time of sacrifice. Fluorescent green micro-metastatic cancer cell colonies in the left lung lobe and lymph nodes were counted using a Nikon fluorescence microscope (TE-200) with a 20 x objective (200 x magnification) and Image-Pro Plus (version 4.1; Media Cybernetics, Silver Spring, MD) software associated with the microscope. Fluorescent lesions were separated into three size grouping: <5 µm , 5-10 µm and >10 µm.
# [2] = system: CD31; assay: CD31 immunohistochemistry of tumor sections (tumor blood vessel numbers); assay type: in vivo, Balb/c mice; conditions: for % Reduction of CD31 Blood Vessel Nos/Area: liposomal formulation by aerosol, versus control
# [3] = system: 66 cl.4-GFP tumors; assay: TUNEL assay for apoptosis in tumor sections in vivo; parameters: species or system Balb/c mice; conditions: for % Enhanement of TUNEL Positive Apopotic Cells/Area: liposomal formulation by aerosol, versus control
# Excerpt: Deparaffinized sections (5 µm) of tumor tissue were used to assess apoptosis using reagents supplied in the ApopTag In Situ Apoptosis Detection kit (Intergen, Purchase, NY) according to the manufacturer's instructions. Nuclei that stained brown were scored as positive for apoptosis and those that stained blue were scored as negative. At least sixteen 400X microscopic fields were scored per tumor. Data are presented as the mean ± S. E number of apoptotic cells counted in three separate tumors from each group. Pictures of tumor tissue were taken at 1000X magnification.
# [4] = system: proliferation biomarker KI-67; assay: KI-67 immunohistochemistry of tumor sections (cell proliferation); assay type: in vivo, Balb/c mice; conditions: for % Reduction of KI67: liposomal formulation by aerosol, versus control
# [5] = system: 66 cl.4-GFP cells; assay: Fluorescent lung micrometastases of 66 cl.4-GFP tumors in Balb/c mice; assay type: in vivo
# Excerpt: as §1
# (§2) At sacrifice, the left lung lobe of each mouse of flash frozen and saves for detection of GFP expressing micrometatstic lesions via fluorescent microscopy.
# [6] = system: 66 cl.4-GFP cells; assay: Fluorescent lymph node micrometastases of 66 cl.4-GFP tumors in Balb/c mice; assay type: in vivo
# Excerpt: as §1, §2
# [7] = system: 66 cl.4-GFP cells; assay: Tumor growth of 66 cl.4-GFP mammary tumor cells implanted in Balb/c mice; conditions: for tumor growth, determined by tumor volume, versus controls: liposomal preparations delivered by aerosol, 36 µg per animal per day; for reduced tumor growth: liposome aerosol, 36 µg compound per day
# Experimental: 66 cl.4-GFP cells were harvested by trypsinization, centrifuged, resuspended in McCoy's media, containing no supplements at a density of 2 X 10^5/100µl. Mice were injected in the inguinal area at a point equal distance between the 4th and 5th nipples on the right side using a 23 gauge needle.
# 50 mice were assigned (10 per group) to aerosol treatment, aerosol control, oral treatment, oral control, or to the no treatment group so that the average tumor volume for all groups were closely matched. […] Tumors were measured using calipers every other day, and volumes were calculated using the formula: volume (mm^3) = [width (mm)^2 X length (mm)] /2. Body weights were determined weekly.
# Balb/c mice were injected with 200,000 66 cl.4 GFP cells subcutaneous in the mammary fat pad area between the 4th and 5th nipple on the right side of the body.
# Mice are injected with 200,000 66cl.4 GFP murine mammary tumor cells as described on day 0. Treatments are initiated on day 9 when tumors reached 1-3 mm in size. […] Data represent the mean +/- Standard Error (SE), N = 10 mice for control and treatment groups.
# Balb/c mice were injected s. c. with 2 X 10^5 66 cl.4-GFP cells in the inguinal area between the 4th and 5th nipple on the right side of the body. When tumors reached 2 x 2-4 x 4 mm (9 days after tumor injection), mice were placed into 5 groups ((Group 1: untreated control, Group 2: liposome/aerosol control, Group 3: liposomal α-TEA aerosol treatment, Group 4: peanut oil/gavage control, Group 5: α-TEA in peanut oil/gavage treatment) of 10 mice/group) such that the mean tumor volume of each group was closely matched. Daily treatments were initiated on day 9 after tumor injection.
# Balb/c mice were injected with 200,000 66 cl.4 GFP cells subcutaneous in the mammary fat pad area between the 4th and 5th nipple on the right side of the body. […] Animals were treated with α-TEA in liposome, vitamin E succinate in liposome, or control liposome alone via aerosol, 7 days per week, for 21 days. Animals were given 75 mg compound via nebulization per day such that each animal received 36 µg compound per day.
# The size of the tumors, 9 - 21 days after injection of 200,000 66 cl.4 GFP cells between the 4th and 5th nipple on the right side of each mouse, is determined. Treatments are initiated on day 9 after tumor inoculation. Each group consists of n=10 +/- SE. Gavage Treatment = Treatments of 5 mg of α-TEA in ethanol and peanut oil (0.1 ml volume) are administered daily starting on day 9 after tumor inoculation and continuing through day 21. Gavage Control = Mice received peanut oil and ethanol alone (0.ml volume)/daily, starting on day 9 after tumor inoculation and continuing through day 21. Data (tumor size) are depicted as the mean +/- standard error for days 9, 11, 13, 15, 17, 19, and 21.
# Balb/c mice were injected with 200,000 66 cl.4 GFP cells subcutaneous in the mammary fat pad area between the 4th and 5th nipple on the right side of the body. […] Animals were treated with α-TEA in liposome, vitamin E succinate in liposome, or control liposome alone via oral gavage, 2 times per day, 7 days per week, for 21 days. Animals were given a total of 6 mg compound per day.
# [8] = after thirty minutes, cited from earlier work
# [9] = system: MDA-MB-435 GFP FL cells; assay: Tumor growth of MDA-MB-435 GFP FL breast cancer cells in nude mice; assay type: in vivo, Nu/Nu athymic nude mice; conditions: day 35; α-TEA in liposome via aerosol; MSC 3ppm in water by gavage
# Experimental: Animals were given a total of 8 mg compound per day. […] Alpha-TEA liposome gavage reduced tumor growth by 68, 75, 78, 79 and 79% on days 27, 29, 31, 33, and 35, respectively (Fig. 15).
# Animals were gavaged 3ppm methylselenocysteine (MSC) in water, α-TEA in liposome via aerosol, or gavaged 10 mg/kg b.w. trans-resveratrol (t-RES) in first 1:1, EtOH: physiological saline, and starting at day 24, 6.5% EtOH and 93.5% Neobee oil. A combination group was treated with each of the above three compounds, and a control group was treated with aerosolized liposome, 100 µl water, and 50 µl of the t-Res solvent. Animals were treated seven days a week, for 35+ days.
# [10] = system: 66 cl.4-GFP cells; assay: Apoptosis by morphological evaluation of DAPI-stained nuclei; assay type: cell-based, mouse; conditions: three days
# [11] = liposomal formulation delivered by aerosol, tumor sections
# [12] = Aerosol, in nebulizer per mouse: α-TEA 5 mg/d, 9NC 2 µg/d, combination 5 mg+2µg/d
# [13] = aerosol liposome delivery, 30 min
smiles,measurement,setting,value
CC(=O)Oc1c(C)c(C)c2c(c1C)CCC(C)(CCCC(C)CCCC(C)CCCC(C)C)O2 (racemic) [dl-α tocopherol acetate],Visible lung metastases/animal,[1],0.3
same,Inhibition (%) of visible lung metastases,[1],82%
"Cc1c(C)c2c(c(C)c1O)CCC(C)(CCCC(C)CCCC(C)CCCC(C)C)O2 (racemic) [dl-α-tocopherol, dl-alpha-tocopherol]",Visible lung metastases/animal,[1],0.1
same,Inhibition (%) of visible lung metastases,[1],94** %
same,% Reduction of CD31 Blood Vessel Nos/Area,[2],51%
same,% Reduction of CD31 Blood Vessel Nos/Area,[2]; listed as dl-alpha-tocopherol,51%
same,CD31 Blood Vessel Nos/Area,[2]; [11],112
same,% Enhanement of TUNEL Positive Apopotic Cells/Area,[3],44%
same,% Enhanement of TUNEL Positive Apopotic Cells/Area,[3]; listed as dl-alpha-tocopherol,44%
same,TUNEL Positive Apopotic Cells/Area,[3]; [11],2.5
same,% Reduction of KI67,[4],33%
same,% Reduction of KI67,[4]; listed as dl-alpha-tocopherol,33%
same,KI67 Inhibition of Proliferation (%),[4]; [11],40%
CC[C@@]1(O)C(=O)OCc2c1cc1n(c2=O)Cc2cc3c([N+](=O)[O-])cccc3nc2-1 [9-nitrocamptothecin],Inhibition (%) Metastases Lung,[5]; [12],55%
same,Inhibition (%) Metastases Lymphnode,[6]; [12],60%
same,Inhibition (%) Tumor Growth,[7]; [12],58%
same,Levels of 9-nitrocamptothecin in the brain,[8]; [13],61 ng/g
same,Levels of 9-nitrocamptothecin in the liver,[8]; [13],192 ng/g
same,Levels of 9-nitrocamptothecin in the lungs,[8]; [13],310 ng/g
same,Levels of 9-nitrocamptothecin in the liver,"[8]; intramuscular delivery, 30 min",136 ng/g
same,Levels of 9-nitrocamptothecin in the lungs,"[8]; intramuscular delivery, 30 min",2 to 4 ng/g
same,Levels of 9-nitrocamptothecin in the brain,[8]; intramuscular delivery,0 ng/g
"C[Se]C[C@H](N)C(=O)O [MSC, methylselenocysteine, reference compound]",tumor volume decrease from the control,[9],47.2%
"Cc1cc(O)cc2c1O[C@](C)(CCC[C@H](C)CCC[C@H](C)CCCC(C)C)CC2 [RRR-delta tocopherol, RRR-delta-tocopherol]",Visible lung metastases/animal,[1],0.3
same,Inhibition (%) of visible lung metastases,[1],82%
"Cc1c(C)c2c(c(C)c1O)CC[C@@](C)(CCC[C@H](C)CCC[C@H](C)CCCC(C)C)O2 [RRR-α tocopherol, RRR-α-tocopherol]",Visible lung metastases/animal,[1],1.7
same,Inhibition (%) of visible lung metastases,[1],0%
same,"tumor growth, determined by tumor volume, versus controls",[7],enhanced tumor growth
"CC(C)=CCC/C(C)=C/CC/C(C)=C/CC[C@]1(C)CCc2c(C)c(O)c(C)c(C)c2O1 [RRR-α-tocotrienol, RRR-alpha-tocotrienol]",Visible lung metastases/animal,[1],0.4
same,Inhibition (%) of visible lung metastases,[1],77%
"Cc1c(O)cc2c(c1C)O[C@](C)(CCC[C@H](C)CCC[C@H](C)CCCC(C)C)CC2 [RRR-γ tocopherol, RRR-γ-tocopherol]",Visible lung metastases/animal,[1],1.15
same,Inhibition (%) of visible lung metastases,[1],32%
same,"tumor growth, determined by tumor volume, versus controls",[7],enhanced tumor growth
"Cc1c(C)c2c(c(C)c1OC(=O)CCC(=O)O)CC[C@@](C)(CCC[C@H](C)CCC[C@H](C)CCCC(C)C)O2 [vitamin E succinate, RRR-α-tocopheryl succinate, reference compound]",effect on lung metastasis,"[5]; liposomal formulation via gavage, 6 mg compound per day, 21 days",no effect on lung metastasis
same,effect on lymph node micrometastatic lesions (Fig. 14B),"[6]; liposome via gavage, 6 mg compound per day, 21 days",not effective in decreasing micrometastatic lung lesions
same,reduced tumor growth,"[7]; 21 days, day 15",76%
same,reduced tumor growth,"[7]; 21 days, day 17",76%
same,reduced tumor growth,"[7]; 21 days, day 19",69%
same,reduced tumor growth,"[7]; 21 days, day 21",68%
same,tumor growth versus control liposome,"[7]; liposome gavage, 6 mg compound per day, 21 days",did not reduce tumor growth
same,apoptosis,[10]; 2.5 µg/ml,3%
same,apoptosis,[10]; 5 µg/ml,5%
same,apoptosis,[10]; 10 µg/ml,16%
same,apoptosis,[10]; 20 µg/ml,34%
